Like-named read-outs stand apart in the source and are kept apart here.
Biological target: T1, human VDR (Homo sapiens, UniProt P11473)
T1 sequence (P11473 1-427): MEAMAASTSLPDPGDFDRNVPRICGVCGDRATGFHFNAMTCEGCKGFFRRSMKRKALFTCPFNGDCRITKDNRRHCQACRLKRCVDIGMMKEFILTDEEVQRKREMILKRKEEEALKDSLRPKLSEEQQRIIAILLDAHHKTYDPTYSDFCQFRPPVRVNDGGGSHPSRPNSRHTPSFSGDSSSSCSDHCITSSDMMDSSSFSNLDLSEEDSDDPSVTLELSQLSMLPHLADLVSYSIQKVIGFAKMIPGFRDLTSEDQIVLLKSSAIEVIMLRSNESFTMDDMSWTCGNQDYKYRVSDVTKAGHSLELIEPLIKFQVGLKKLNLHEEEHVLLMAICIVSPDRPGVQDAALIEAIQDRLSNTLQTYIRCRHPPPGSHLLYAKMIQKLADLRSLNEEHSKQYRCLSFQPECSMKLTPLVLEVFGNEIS
T1 sequence (P19793 1-462 partner): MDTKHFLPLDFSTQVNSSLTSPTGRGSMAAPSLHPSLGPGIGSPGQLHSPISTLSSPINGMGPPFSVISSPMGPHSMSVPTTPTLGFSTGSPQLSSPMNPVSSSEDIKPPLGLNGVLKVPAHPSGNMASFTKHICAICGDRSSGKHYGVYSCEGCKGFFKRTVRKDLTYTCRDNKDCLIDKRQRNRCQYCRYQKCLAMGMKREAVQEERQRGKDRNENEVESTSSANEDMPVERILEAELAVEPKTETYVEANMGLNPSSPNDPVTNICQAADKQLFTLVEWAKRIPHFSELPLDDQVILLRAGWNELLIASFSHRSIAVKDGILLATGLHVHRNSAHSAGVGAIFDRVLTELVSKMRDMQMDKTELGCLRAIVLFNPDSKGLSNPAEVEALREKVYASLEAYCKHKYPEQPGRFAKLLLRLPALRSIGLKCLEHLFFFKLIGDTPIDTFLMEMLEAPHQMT
Test: Evaluation of VDR transcription activity in human osteoblasts (HOS cells), luciferase reporter
Conditions: HOS cells transfected with human VDR, human RXRα and DR3 luciferase reporter, 21 hours

[1] = Activity (EC50, VDR transcription activity)

EC50 [1] [nM]	EC50 (read-out: Activity (EC50, VDR transcription activity)) [nM]	SMILES
10 to 100	–	C=C1/C(=C\C=C2/CCC[C@]3(C)[C@@H]([C@H](C)CN4CC(C(C)(F)F)C4)CC[C@@H]23)C[C@@H](O)C[C@@H]1O [Compound A006, (1R,3S,Z)-5-(2-((1R,3aS,7aR,E)-1-((S)-1-(3-(1,1-difluoroethyl)azetidin-1-yl)propan-2-yl)-7a-methyloctahydro-4H-inden-4-ylidene)ethylidene)-4-methylenecyclohexane-1,3-diol]
10 to 100	–	C[C@H](CN1CC[C@@H](OC(F)F)C1)[C@H]1CC[C@H]2/C(=C/C=C3C[C@@H](O)C[C@H](O)C3)CCC[C@]12C [Compound B052, (1R,3R)-5-(2-((1R,3aS,7aR,E)-1-((S)-1-((R)-3-(difluoromethoxy)pyrrolidin-1-yl)propan-2-yl)-7a-methyloctahydro-4H-inden-4-ylidene)ethylidene)cyclohexane-1,3-diol]
1 to 10	–	C=C1[C@H](O)CC(=C/C=C2\CCC[C@]3(C)[C@@H]([C@H](C)CN4CC[C@H](OC(F)F)C4)CC[C@@H]23)C[C@H]1O [Compound B049, (1R,3R)-5-(2-((1R,3aS,7aR,E)-1-((S)-1-((S)-3-(difluoromethoxy)pyrrolidin-1-yl)propan-2-yl)-7a-methyloctahydro-4H-inden-4-ylidene)ethylidene)-2-methylenecyclohexane-1,3-diol]
10 to 100	–	C=C1/C(=C\C=C2/CCC[C@]3(C)[C@@H]([C@H](C)CN4CCC(C(F)(F)F)CC4)CC[C@@H]23)C[C@@H](O)[C@H](C)[C@@H]1O [Compound C010, (1R,2S,3S,Z)-2-methyl-5-(2-((1R,3aS,7aR,E)-7a-methyl-1-((S)-1-(4-(trifluoromethyl)piperidin-1-yl)propan-2-yl)octahydro-4H-inden-4-ylidene)ethylidene)-4-methylenecyclohexane-1,3-diol]
10 to 100	–	C=C1/C(=C\C=C2/CCC[C@]3(C)[C@@H]([C@H](C)CN4CC[C@H](OCC(F)F)C4)CC[C@@H]23)C[C@@H](O)C[C@@H]1O [Compound B053, (1R,3S,Z)-5-(2-((1R,3aS,7aR,E)-1-((S)-1-((S)-3-(2,2-difluoroethoxy)pyrrolidin-1-yl)propan-2-yl)-7a-methyloctahydro-4H-inden-4-ylidene)ethylidene)-4-methylenecyclohexane-1,3-diol]
10 to 100	–	C=C1/C(=C\C=C2/CCC[C@]3(C)[C@@H]([C@H](C)CN4CC[C@@H](OC(F)(F)F)C4)CC[C@@H]23)C[C@@H](O)C[C@@H]1O [Compound B066, (1R,3S,Z)-5-(2-((1R,3aS,7aR,E)-7a-methyl-1-((S)-1-((R)-3-(trifluoromethoxy)pyrrolidin-1-yl)propan-2-yl)octahydro-4H-inden-4-ylidene)ethylidene)-4-methylenecyclohexane-1,3-diol]
1 to 10	–	COC1(C(F)(F)F)CN(CC[C@@H](C)[C@H]2CC[C@H]3/C(=C/C=C4C[C@@H](O)C[C@H](O)C4)CCC[C@]23C)C1 [Compound A027, (1R,3R)-5-(2-((1R,3aS,7aR,E)-1-((R)-4-(3-methoxy-3-(trifluoromethyl)azetidin-1-yl)butan-2-yl)-7a-methyloctahydro-4H-inden-4-ylidene)ethylidene)cyclohexane-1,3-diol]
10 to 100	–	C[C@@H](CN1CC[C@H](C(F)F)C1)[C@H]1CC[C@H]2/C(=C/C=C3CC(O)C[C@H](O)C3)CCC[C@]12C (stereo in doubt) [Compound B099, (1R,3S)-5-(2-((1R,3aS,7aR,E)-1-((R)-1-((S)-3-(difluoromethyl)pyrrolidin-1-yl)propan-2-yl)-7a-methyloctahydro-4H-inden-4-ylidene)ethylidene)cyclohexane-1,3-diol]
< 1	–	C=C1/C(=C\C=C2/CCC[C@]3(C)[C@@H]([C@H](C)CN4CC[C@H](C(C)(F)F)C4)CC[C@@H]23)C[C@@H](O)C[C@@H]1O [Compound B028, (1R,3S,Z)-5-(2-((1R,3aS,7aR,E)-1-((S)-1-((S)-3-(1,1-difluoroethyl)pyrrolidin-1-yl)propan-2-yl)-7a-methyloctahydro-4H-inden-4-ylidene)ethylidene)-4-methylenecyclohexane-1,3-diol]
1 to 10	–	C=C1[C@H](O)CC(=C/C=C2\CCC[C@]3(C)[C@@H]([C@H](C)CN4CCC[C@H](C(C)(F)F)C4)CC[C@@H]23)C[C@H]1O [Compound C053, (1R,3R)-5-(2-((1R,3aS,7aR,E)-1-((S)-1-((S)-3-(1,1-difluoroethyl)piperidin-1-yl)propan-2-yl)-7a-methyloctahydro-4H-inden-4-ylidene)ethylidene)-2-methylenecyclohexane-1,3-diol]
1 to 10	–	C=C1[C@H](O)CC(=C/C=C2\CCC[C@]3(C)[C@@H]([C@H](C)CCN4CCO[C@H](C)C4)CC[C@@H]23)C[C@H]1O [Compound D040, (1R,3R)-5-(2-((1R,3aS,7aR,E)-7a-methyl-1-((R)-4-((R)-2-methylmorpholino)butan-2-yl)octahydro-4H-inden-4-ylidene)ethylidene)-2-methylenecyclohexane-1,3-diol]
10 to 100	–	C=C1[C@H](O)CC(=C/C=C2\CCC[C@]3(C)[C@@H]([C@@H](C)CN4CCC(CC(F)F)CC4)CC[C@@H]23)C[C@H]1O [Compound C056, (1R,3R)-5-(2-((1R,3aS,7aR,E)-1-((R)-1-(4-(2,2-difluoroethyl)piperidin-1-yl)propan-2-yl)-7a-methyloctahydro-4H-inden-4-ylidene)ethylidene)-2-methylenecyclohexane-1,3-diol]
1 to 10	–	C=C1/C(=C\C=C2/CCC[C@]3(C)[C@@H]([C@H](C)CN4CC(O)(C(F)(F)F)C4)CC[C@@H]23)C[C@@H](O)C[C@@H]1O [Compound A009, (1R,3S,Z)-5-(2-((1R,3aS,7aR,E)-1-((S)-1-(3-hydroxy-3-(trifluoromethyl)azetidin-1-yl)propan-2-yl)-7a-methyloctahydro-4H-inden-4-ylidene)ethylidene)-4-methylenecyclohexane-1,3-diol]
–	< 1	C=C1[C@H](O)CC(=C/C=C2\CCC[C@]3(C)[C@@H]([C@H](C)CN4CCC(O)(C(F)(F)F)C4)CC[C@@H]23)C[C@H]1O (single isomer, unassigned) [Compound B046b]
< 1	–	C=C1/C(=C\C=C2/CCC[C@]3(C)[C@@H]([C@H](C)CN4CCCC(C)(O)C4)CC[C@@H]23)C[C@@H](O)C[C@@H]1O (single isomer, unassigned) [Compound C037a]
10 to 100	–	C=C1/C(=C\C=C2/CCC[C@]3(C)[C@@H]([C@@H](C)CN4CCC(F)CC4)CC[C@@H]23)C[C@@H](O)C[C@@H]1O [Compound C058]
10 to 100	–	C=C1/C(=C\C=C2/CCC[C@]3(C)[C@@H]([C@H](C)CN4CCCC(O)(C(F)F)C4)CC[C@@H]23)C[C@@H](O)C[C@@H]1O (single isomer, unassigned) [Compound C034b]
100 to 1000	–	C=C1/C(=C\C=C2/CCC[C@]3(C)[C@@H]([C@H](C)CN4CCC(C(F)F)CC4)CC[C@@H]23)C[C@@H](O)[C@H](C)[C@@H]1O [Compound C016, (1R,2S,3S,Z)-5-(2-((1R,3aS,7aR,E)-1-((S)-1-(4-(difluoromethyl)piperidin-1-yl)propan-2-yl)-7a-methyloctahydro-4H-inden-4-ylidene)ethylidene)-2-methyl-4-methylenecyclohexane-1,3-diol]
1 to 10	–	C=C1[C@H](O)CC(=C/C=C2\CCC[C@]3(C)[C@@H]([C@H](C)CN4CC[C@H](CC)C4)CC[C@@H]23)C[C@H]1O [Compound B005, (1R,3R)-5-(2-((1R,3aS,7aR,E)-1-((S)-1-((S)-3-ethylpyrrolidin-1-yl)propan-2-yl)-7a-methyloctahydro-4H-inden-4-ylidene)ethylidene)-2-methylenecyclohexane-1,3-diol]
100 to 1000	–	C[C@H](CN1CC[C@@](C)(O)C1)[C@H]1CC[C@H]2/C(=C/C=C3CC(O)C[C@H](O)C3)CCC[C@]12C (stereo in doubt) [Compound B075, (1R,3S)-5-(2-((1R,3aS,7aR,E)-1-((S)-1-((R)-3-hydroxy-3-methylpyrrolidin-1-yl)propan-2-yl)-7a-methyloctahydro-4H-inden-4-ylidene)ethylidene)cyclohexane-1,3-diol]
100 to 1000	–	C=C1/C(=C\C=C2/CCC[C@]3(C)[C@@H]([C@@H](C)CN4CCCC4)CC[C@@H]23)C[C@@H](O)C[C@@H]1O [Compound B009, (1R,3S,Z)-5-(2-((1R,3aS,7aR,E)-7a-methyl-1-((R)-1-(pyrrolidin-1-yl)propan-2-yl)octahydro-4H-inden-4-ylidene)ethylidene)-4-methylenecyclohexane-1,3-diol]

— patent US20230348376A1 (TEIJIN PHARMA LIMITED, priority 2020, published 2023)
